Laboratory results taken from ChEMBL document CHEMBL1129595, “Potent 6-desfluoro-8-methylquinolones as new lead compounds in antibacterial chemotherapy” (J Med Chem, 1996).
≈ marks a conversion by molar mass, not a printed value.

How the values were obtained:
Staphylococcus aureus [1] = experiment: In vitro antibacterial activity against Staphylococcus aureus MPR 5; type: functional
Staphylococcus aureus [2] = experiment: In vitro antibacterial activity against Staphylococcus aureus CPX-R OBT 687; type: functional
Proteus vulgaris = experiment: In vitro antibacterial activity against Proteus vulgaris CNUR 6; type: functional
Escherichia coli [3] = experiment: In vitro antibacterial activity against Escherichia coliCPX-R OBT 431; type: functional
Enterococcus faecalis [4] = experiment: In vitro antibacterial activity against Enterococcus faecalis LEP Br; type: functional
Escherichia coli [5] = experiment: In vitro antibacterial activity against Escherichia coli 120; type: functional
Haemophilus influenzae = experiment: In vitro antibacterial activity against Haemophilus influenzae; type: functional
Staphylococcus aureus [6] = experiment: In vitro antibacterial activity against Staphylococcus aureus ATCC 29213; type: functional
Escherichia coli [7] = experiment: In vitro antibacterial activity against Escherichia coli ATCC 25922; type: functional
Pseudomonas aeruginosa [8] = experiment: In vitro antibacterial activity against Pseudomonas aeruginosa […] 9027; type: functional
Proteus mirabilis = experiment: In vitro antibacterial activity against Proteus mirabilis OBT 505; type: functional
Staphylococcus aureus [9] = experiment: In vitro antibacterial activity against Staphylococcus aureus M-R POMM 6214; type: functional
Streptococcus pyogenes = experiment: In vitro antibacterial activity against Streptococcus pyogenes OMNFI BI; type: functional
Streptococcus pneumoniae = experiment: In vitro antibacterial activity against Streptococcus pneumoniae I 0.43; type: functional
Pseudomonas aeruginosa [10] = experiment: In vitro antibacterial activity against Pseudomonas aeruginosa OBT 307; type: functional
Enterobacter cloacae = experiment: In vitro antibacterial activity against Enterobacter cloacae OMNFI 174; type: functional
Klebsiella pneumoniae = experiment: In vitro antibacterial activity against Klebsiella pneumoniae ATCC 10031; type: functional
Enterococcus faecalis [11] = experiment: In vitro antibacterial activity against Enterococcus faecalis UCMC 39690; type: functional
DNA gyrase = DNA gyrase (Escherichia coli, UniProt P0AES4+P0AES6); experiment: Inhibitory effect against Escherichia coli Gyrase in Supercoiling assay; type: protein-complex assay
[12] = Mean MIC against gram positive; type: functional
[13] = Mean MIC against gram negative; type: functional

SMILES	MIC (Staphylococcus aureus [1]) [µg/mL]	MIC (Staphylococcus aureus [2]) [µg/mL]	MIC (Proteus vulgaris) [µg/mL]	MIC (Escherichia coli [3]) [µg/mL]	MIC (Enterococcus faecalis [4]) [µg/mL]	MIC (Escherichia coli [5]) [µg/mL]	MIC (Haemophilus influenzae) [µg/mL]	MIC (Staphylococcus aureus [6]) [µg/mL]	MIC (Escherichia coli [7]) [µg/mL]	MIC (Pseudomonas aeruginosa [8]) [µg/mL]	MIC (Proteus mirabilis) [µg/mL]	MIC (Staphylococcus aureus [9]) [µg/mL]	MIC (Streptococcus pyogenes) [µg/mL]	MIC (Streptococcus pneumoniae) [µg/mL]	MIC (Pseudomonas aeruginosa [10]) [µg/mL]	MIC (Enterobacter cloacae) [µg/mL]	MIC (Klebsiella pneumoniae) [µg/mL]	MIC (Enterococcus faecalis [11]) [µg/mL]	IC50 (DNA gyrase) [µM]	MIC [12] [µg/mL]	other results
Cc1c(N2CC(C)CC(C)C2)ccc2c(=O)c(C(=O)O)cn(C3CC3)c12 (stereo unspecified)	< 0.016	4 (≈ 11.3 µM)	> 16	> 16	1 (≈ 2.82 µM)	1 (≈ 2.82 µM)	0.25 (≈ 0.705 µM)	< 0.016	1 (≈ 2.82 µM)	8 (≈ 22.6 µM)	16 (≈ 45.1 µM)	< 0.016	2 (≈ 5.64 µM)	0.5 (≈ 1.41 µM)	> 16	4 (≈ 11.3 µM)	0.5 (≈ 1.41 µM)	1 (≈ 2.82 µM)	–	–	–
Cc1c(N2CCCC(CO)C2)ccc2c(=O)c(C(=O)O)cn(C3CC3)c12 (stereo unspecified)	< 0.016	1 (≈ 2.81 µM)	8 (≈ 22.4 µM)	16 (≈ 44.9 µM)	0.5 (≈ 1.4 µM)	0.25 (≈ 0.701 µM)	< 0.016	< 0.016	0.125 (≈ 0.351 µM)	4 (≈ 11.2 µM)	4 (≈ 11.2 µM)	< 0.016	0.5 (≈ 1.4 µM)	0.5 (≈ 1.4 µM)	16 (≈ 44.9 µM)	0.5 (≈ 1.4 µM)	0.06 (≈ 0.168 µM)	0.25 (≈ 0.701 µM)	–	–	–
CN1CCN(c2cc3c(cc2F)c(=O)c(C(=O)O)cn3C2CC2)CC1	0.125 (≈ 0.362 µM)	16 (≈ 46.3 µM)	0.5 (≈ 1.45 µM)	> 16	0.5 (≈ 1.45 µM)	< 0.016	< 0.016	0.125 (≈ 0.362 µM)	< 0.016	0.5 (≈ 1.45 µM)	0.25 (≈ 0.724 µM)	1 (≈ 2.9 µM)	2 (≈ 5.79 µM)	0.5 (≈ 1.45 µM)	0.25 (≈ 0.724 µM)	< 0.016	< 0.016	0.25 (≈ 0.724 µM)	4.34	0.648 (≈ 1.88 µM)	MIC [13]: 0.11 µg/mL (≈ 0.318 µM)
Cc1c(N2CCNCC2)ccc2c(=O)c(C(=O)O)cn(C3CC3)c12.Cl	0.25	16	2	> 16	2	0.03	0.03	0.5	0.03	0.125	0.25	0.5	2	2	2	0.26	< 0.016	2	–	–	–
O=C(O)c1cn(C2CC2)c2cc(N3CCNCC3)c(F)cc2c1=O [CIPROFLOXACIN]	0.25 (≈ 0.754 µM)	> 16	0.5 (≈ 1.51 µM)	–	1 (≈ 3.02 µM)	< 0.016	< 0.016	0.5 (≈ 1.51 µM)	< 0.016	0.06 (≈ 0.181 µM)	0.06 (≈ 0.181 µM)	1 (≈ 3.02 µM)	0.5 (≈ 1.51 µM)	1 (≈ 3.02 µM)	1 (≈ 3.02 µM)	–	< 0.016	0.5 (≈ 1.51 µM)	–	0.917 (≈ 2.77 µM)	MIC [13]: 0.083 µg/mL (≈ 0.25 µM)

Now from value to compound, other results behind:

MIC (Staphylococcus aureus [1]) [µg/mL]	MIC (Staphylococcus aureus [2]) [µg/mL]	MIC (Proteus vulgaris) [µg/mL]	MIC (Escherichia coli [3]) [µg/mL]	MIC (Enterococcus faecalis [4]) [µg/mL]	MIC (Escherichia coli [5]) [µg/mL]	MIC (Haemophilus influenzae) [µg/mL]	MIC (Staphylococcus aureus [6]) [µg/mL]	MIC (Escherichia coli [7]) [µg/mL]	MIC (Pseudomonas aeruginosa [8]) [µg/mL]	MIC (Proteus mirabilis) [µg/mL]	MIC (Staphylococcus aureus [9]) [µg/mL]	MIC (Streptococcus pyogenes) [µg/mL]	MIC (Streptococcus pneumoniae) [µg/mL]	MIC (Pseudomonas aeruginosa [10]) [µg/mL]	MIC (Enterobacter cloacae) [µg/mL]	MIC (Klebsiella pneumoniae) [µg/mL]	MIC (Enterococcus faecalis [11]) [µg/mL]	IC50 (DNA gyrase) [µM]	MIC [12] [µg/mL]	SMILES	other results
0.125	4	2	16	0.5	0.016	0.6	0.125	0.03	0.125	0.06	0.25	0.25	0.25	0.5	0.25	0.016	0.25	–	–	CC(=O)O.Cc1c(N2CC[C@@H](N)C2)ccc2c(=O)c(C(=O)O)cn(C3CC3)c12	–
0.25 (≈ 0.732 µM)	8 (≈ 23.4 µM)	8 (≈ 23.4 µM)	> 16	2 (≈ 5.86 µM)	0.06 (≈ 0.176 µM)	0.06 (≈ 0.176 µM)	0.25 (≈ 0.732 µM)	0.06 (≈ 0.176 µM)	2 (≈ 5.86 µM)	2 (≈ 5.86 µM)	0.5 (≈ 1.46 µM)	2 (≈ 5.86 µM)	2 (≈ 5.86 µM)	16 (≈ 46.9 µM)	0.25 (≈ 0.732 µM)	< 0.016	1 (≈ 2.93 µM)	83.5	1.09 (≈ 3.19 µM)	Cc1c(N2CCN(C)CC2)ccc2c(=O)c(C(=O)O)cn(C3CC3)c12	Mean MIC [12]: 0.609 µg/mL
0.06 (≈ 0.167 µM)	2 (≈ 5.56 µM)	0.5 (≈ 1.39 µM)	4 (≈ 11.1 µM)	0.25 (≈ 0.696 µM)	< 0.016	< 0.016	0.125 (≈ 0.348 µM)	< 0.016	0.5 (≈ 1.39 µM)	0.5 (≈ 1.39 µM)	0.125 (≈ 0.348 µM)	0.25 (≈ 0.696 µM)	1 (≈ 2.78 µM)	0.2 (≈ 0.556 µM)	0.125 (≈ 0.348 µM)	< 0.016	0.271 (≈ 0.754 µM)	16.4	0.271 (≈ 0.754 µM)	Cc1c(N2CCN(C)CC2)c(F)cc2c(=O)c(C(=O)O)cn(C3CC3)c12	MIC [13]: 0.155 µg/mL (≈ 0.431 µM)
0.125 (≈ 0.382 µM)	4 (≈ 12.2 µM)	1 (≈ 3.05 µM)	16 (≈ 48.9 µM)	1 (≈ 3.05 µM)	< 0.016	< 0.016	0.125 (≈ 0.382 µM)	< 0.016	0.125 (≈ 0.382 µM)	0.5 (≈ 1.53 µM)	0.25 (≈ 0.764 µM)	1 (≈ 3.05 µM)	0.06 (≈ 0.183 µM)	1 (≈ 3.05 µM)	< 0.016	< 0.016	0.5 (≈ 1.53 µM)	–	–	Cc1c(N2CCC(N)C2)ccc2c(=O)c(C(=O)O)cn(C3CC3)c12 (stereo unspecified)	–
